Assay results reported in patent publication US4767758A, “Pharmaceutical compositions containing thiophene compounds, and new thiophene compounds” (Consiglio Nazionale Delle Ricerche, priority 1984, dated 1988).

How the values were obtained:
L 929 cells [1] = test: Cytotoxicity on cell cultures (Table 2)
Experimental: (§1) The biological and pharmacological activity of the compounds under examination was tested on cell cultures and under gamma radiations. Concentrations of 10^-6, 5×10^-6, 10^-5 and 10^-3 M of each compound were used. These aqueous solutions were added to cell cultures containing from 50 to 60 L 929 cells per mm^2; nutrient solution RPM-1-1640 containing 3% calf serum. Contact between the cells and the compound under examination was continued for six hours under nitrogen and under air. Parts of the solutions during the contact with the drug were irradiated in gamma cell with 1000, 2000 and 3000 rad always using a control sample without the drug.

[2] = Acute toxicity test by oral and intravenous route on male mice (Table 4); format: in vivo; settings: mouse, in vivo, male mice
Experimental: (§2) The acute toxicity test was carried out by oral and intravenous route on male mice, weighing 19-21 g, which were deprived of meal for 16 hrs before treatment. Oral administration was performed by a gastric probe at doses of 500, 750, 1000 and 2000 mg/kg respectively, of the compounds under examination in aqueous solution of Tween (R). The intravenous administrations was performed in the caudal vein at doses of 100 and 200 mg/kg in 0.9% sodium chloride solution. The administered volumes were 1 ml/20 g by oral route and 0.5 ml/20 g by intravenous route.
(§3) After administration the mice were kept under control for 14 days.

male mice = test: as above; format: in vivo; settings: 14 days
Experimental: as §2, §3

[3] = Reactivity with OH radicals, pulse irradiation (Table 3); settings: KCNS 10^-4 M; pulse 50 nsec, dose 18 Gy; λ=500 nm
Excerpt: (§4) For testing the reactivity with oxygen radicals, solutions of the compounds under examination in very pure water were submitted to irradiation by an electron flow in accordance with the following procedure:
The irradiated solution for measurement of reactivity with OH radicals contained KCNS 10^-4 M and increasing concentrations of the compounds under examination. The concentrations were 10^-6 and 6×10^-6for the first five compounds of Table 1, 10^-5 and 10^-4, 10^-3 M for the other eight compounds.
The water used for the tests was neutral and made absolutely pure by deionization and four distillations also in the presence of oxidizing agents (KMnO4).
The irradiation conditions were: pulse 50 nsec, dose 18 Gy.
Absorption was performed at λ=500 nm.

[4] = Reactivity with O2 radicals, pulsed electron beams (Table 3); settings: potassium formiate solution saturated with O2; 12 MeV pulsed electron beams
Excerpt: as §4
The O2 species was generated by irradiation of a […] solution of potassium formiate satured with O2 with 12 MeV pulsed electron beams.
The concentration of the O2 radical produced is depending from the irradiation dose (which is proportional to the length of the pulse) and was in any case in excess with respect to the concentration of the reacting substance.

L 929 cells [5] = test: Radiosensitization of cells in hypoxic condition under gamma radiation (Table 1); format: cell-based
Experimental: as §1, with “Concentrations of 10^-6, 5×10^-6, 10^-5 and 10^-3 M of each compound were used.” left out

[6] = culture time 0 hr, 0.5 × 10^-5 M, control 40
[7] = culture time 6 hr, 0.5 × 10^-5 M, control 62
[8] = culture time 12 hr, 0.5 × 10^-5 M, control 80
[9] = culture time 24 hr, 0.5 × 10^-5 M, control 166
[10] = culture time 0 hr, 5 × 10^-5 M, control 40
[11] = culture time 6 hr, 5 × 10^-5 M, control 62
[12] = culture time 12 hr, 5 × 10^-5 M, control 80
[13] = culture time 24 hr, 5 × 10^-5 M, control 166

Row | Structure (SMILES) | Reactivity with OH radicals measured as a speed constant (KOH·) [3] [M⁻¹ s⁻¹] | Reactivity with O2 radicals measured as a speed constant (KO2-·) [4] [M⁻¹ s⁻¹] | Cytotoxicity Index (number of cells) (L 929 cells [1]; [10]) | Cytotoxicity Index (number of cells) (L 929 cells [1]; [11]) | Cytotoxicity Index (number of cells) (L 929 cells [1]; [12]) | Cytotoxicity Index (number of cells) (L 929 cells [1]; [13]) | Radiosensitization Index (R.S.I.) (L 929 cells [5]; concentration 1 × 10^-4 M) | further results
1 | O=[N+]([O-])c1cc([N+](=O)[O-])c(I)s1 [Compound 1] | 2.1e+10 | 3.5e+06 | – | – | – | – | – | Cytotoxicity Index (number of cells) (L 929 cells [1]; [6]): 36 number of cells; Cytotoxicity Index (number of cells) (L 929 cells [1]; [7]): 35 number of cells; Cytotoxicity Index (number of cells) (L 929 cells [1]; [8]): 42 number of cells; Cytotoxicity Index (number of cells) (L 929 cells [1]; [9]): 71 number of cells; LD50 at 336 h ([2]; intravenous): 200 mg/kg; LD50 at 336 h ([2]; oral): 760 mg/kg; Death (dead/treated animals) (male mice; intravenous, 100 mg/kg): 0/5; Death (dead/treated animals) (male mice; intravenous, 200 mg/kg): 0/5; Death (dead/treated animals) (male mice; oral, 500 mg/kg): 0/5; Death (dead/treated animals) (male mice; oral, 750 mg/kg): 2/5; Death (dead/treated animals) (male mice; oral, 1000 mg/kg): 5/5
2 | O=[N+]([O-])c1csc([N+](=O)[O-])c1 [Compound 2] | – | – | – | – | – | – | – | Cytotoxicity Index (number of cells) (L 929 cells [1]; [6]): 46 number of cells; Cytotoxicity Index (number of cells) (L 929 cells [1]; [7]): 40 number of cells; Cytotoxicity Index (number of cells) (L 929 cells [1]; [8]): 68 number of cells; Cytotoxicity Index (number of cells) (L 929 cells [1]; [9]): 80 number of cells
3 | CS(=O)(=O)c1cc([N+](=O)[O-])c(I)s1 [Compound 3] | – | – | – | – | – | – | – | Cytotoxicity Index (number of cells) (L 929 cells [1]; [6]): 37 number of cells; Cytotoxicity Index (number of cells) (L 929 cells [1]; [7]): 30 number of cells; Cytotoxicity Index (number of cells) (L 929 cells [1]; [8]): 35 number of cells; Cytotoxicity Index (number of cells) (L 929 cells [1]; [9]): 50 number of cells
4 | O=[N+]([O-])c1ccc(Oc2sccc2[N+](=O)[O-])cc1 [Compound 4] | 1.3e+10 | 20000 | – | – | – | – | – | Cytotoxicity Index (number of cells) (L 929 cells [1]; [6]): 56 number of cells; Cytotoxicity Index (number of cells) (L 929 cells [1]; [7]): 34 number of cells; Cytotoxicity Index (number of cells) (L 929 cells [1]; [8]): 48 number of cells; Cytotoxicity Index (number of cells) (L 929 cells [1]; [9]): 70 number of cells
5 | NC(=O)c1ccc([N+](=O)[O-])s1 [Compound 5] | 2.3e+10 | 30000 | 40 number of cells | 32 number of cells | 50 number of cells | 80 number of cells | – | Radiosensitization Index (R.S.I.) (L 929 cells [5]; concentration 5 × 10^-5 M): 1.40
6 | O=C(O)c1ccc([N+](=O)[O-])s1 [Compound 6] | 7.5e+09 | 100000 | 50 number of cells | 60 number of cells | 70 number of cells | 110 number of cells | 1.82 | –
7 | O=C(O)CCNC(=O)c1ccc([N+](=O)[O-])s1 [Compound 7] | – | – | 56 number of cells | 70 number of cells | 75 number of cells | 164 number of cells | 1.38 | –
8 | O=C(O)CCCNC(=O)c1ccc([N+](=O)[O-])s1 [Compound 8] | – | – | 47 number of cells | 50 number of cells | 80 number of cells | 152 number of cells | 1.30 | –
9 | O=C(c1ccc([N+](=O)[O-])s1)N1CCOCC1 [Compound 9, 5-nitro-2-carboxythiophene-morpholinamide] | 3.1e+10 | 230000 | 64 number of cells | 60 number of cells | 80 number of cells | 138 number of cells | 1.56 | LD50 at 336 h ([2]; oral): 2000 mg/kg; Death (dead/treated animals) (male mice; intravenous, 100 mg/kg): 0/5; Death (dead/treated animals) (male mice; intravenous, 200 mg/kg): 0/5; Death (dead/treated animals) (male mice; oral, 500 mg/kg): 0/5; Death (dead/treated animals) (male mice; oral, 750 mg/kg): 0/5; Death (dead/treated animals) (male mice; oral, 1000 mg/kg): 1/5; Death (dead/treated animals) (male mice; oral, 2000 mg/kg): 3/5
10 | CN1CCN(C(=O)c2ccc([N+](=O)[O-])s2)CC1 [Compound 10, 5-nitro-2-carboxythiophene-N-methyl-piperazinamide] | 1e+10 | 33000 | 50 number of cells | 52 number of cells | 60 number of cells | 86 number of cells | 1.58 | –
11 | CC(=O)Nc1ccc([N+](=O)[O-])s1 [Compound 11, 5-nitro-2-(N-acetyl)-thienylamine] | – | – | 44 number of cells | 52 number of cells | 60 number of cells | 90 number of cells | 1.65 | –
12 | O=C(O)C(C(=O)O)c1csc([N+](=O)[O-])c1 [Compound 12, 5-nitro-3-thiophenemalonic acid] | 7.2e+09 | 10000 | 50 number of cells | 60 number of cells | 74 number of cells | 136 number of cells | 1.88 | LD50 at 336 h ([2]; oral): 1200 mg/kg; Death (dead/treated animals) (male mice; intravenous, 100 mg/kg): 0/5; Death (dead/treated animals) (male mice; intravenous, 200 mg/kg): 0/5; Death (dead/treated animals) (male mice; oral, 500 mg/kg): 0/5; Death (dead/treated animals) (male mice; oral, 750 mg/kg): 0/5; Death (dead/treated animals) (male mice; oral, 1000 mg/kg): 2/5; Death (dead/treated animals) (male mice; oral, 2000 mg/kg): 5/5
13 | ON=Cc1ccc(Br)s1 [Compound 13, 5-bromo-2-thiophenaldoxime] | 8e+09 | 23000 | 43 number of cells | 50 number of cells | 70 number of cells | 130 number of cells | 1.65 | LD50 at 336 h ([2]; oral): 1800 mg/kg; Death (dead/treated animals) (male mice; intravenous, 100 mg/kg): 0/5; Death (dead/treated animals) (male mice; intravenous, 200 mg/kg): 0/5; Death (dead/treated animals) (male mice; oral, 500 mg/kg): 0/5; Death (dead/treated animals) (male mice; oral, 750 mg/kg): 0/5; Death (dead/treated animals) (male mice; oral, 1000 mg/kg): 2/5; Death (dead/treated animals) (male mice; oral, 2000 mg/kg): 3/5
14 | COCC(O)Cn1ccnc1[N+](=O)[O-] (stereo not shown) [Misonidazole, reference compound] | – | – | – | – | – | – | – | Radiosensitization Index (R.S.I.) (L 929 cells [5]; concentration 1 × 10^-3 M): 1.65
